Source: the supplement of paper PMC10307832

How the values were obtained:
Assay in all cases: relative viability (nuclei count vs DMSO), 5 days (fraction); higher = more cells survive
Vemurafenib + Decitabine = compound: CCCS(=O)(=O)Nc1ccc(F)c(C(=O)c2c[nH]c3ncc(-c4ccc(Cl)cc4)cc23)c1F [Vemurafenib] + Nc1ncn([C@H]2C[C@H](O)[C@@H](CO)O2)c(=O)n1 [Decitabine] (partner 2 µM)
How it was run: (§1)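 After 5 days of treatment, lung cancer cells in 1536-well plates were fixed and stained in a single step (final 0.05% Triton X-100, 1% formaldehyde, 1 ug/ml Hoechst) and their nuclei counted on 4× images. Treatment had been applied by pin tool the day after seeding as one drug alone or as a fixed anchor-drug dose with five library-drug doses (not always all listed) in √10 steps. Relative viability is the nuclei count of treated wells divided by that of vehicle wells, and values are medians of duplicate plates.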

Vemurafenib + Trametinib = compound: CCCS(=O)(=O)Nc1ccc(F)c(C(=O)c2c[nH]c3ncc(-c4ccc(Cl)cc4)cc23)c1F [Vemurafenib] + CC(=O)Nc1cccc(-n2c(=O)n(C3CC3)c(=O)c3c(Nc4ccc(I)cc4F)n(C)c(=O)c(C)c32)c1 [Trametinib] (partner 0.02 µM)
How it was run: as §1

Alpelisib + Tozasertib = compound: Cc1nc(NC(=O)N2CCC[C@H]2C(N)=O)sc1-c1ccnc(C(C)(C)C(F)(F)F)c1 [Alpelisib] + Cc1cc(Nc2cc(N3CCN(C)CC3)nc(Sc3ccc(NC(=O)C4CC4)cc3)n2)n[nH]1 [Tozasertib] (partner 0.1 µM)
How it was run: as §1

Vemurafenib + Navitoclax = compound: CCCS(=O)(=O)Nc1ccc(F)c(C(=O)c2c[nH]c3ncc(-c4ccc(Cl)cc4)cc23)c1F [Vemurafenib] + CC1(C)CCC(c2ccc(Cl)cc2)=C(CN2CCN(c3ccc(C(=O)NS(=O)(=O)c4ccc(N[C@H](CCN5CCOCC5)CSc5ccccc5)c(S(=O)(=O)C(F)(F)F)c4)cc3)CC2)C1 [Navitoclax] (partner 0.5 µM)
How it was run: as §1

Question: For UMC-11, which relative viability (Vemurafenib + Decitabine; first compound 0.03162 µM) is on record?
Answer: Its relative viability is 0.568.

Question: What about the relative viability (Vemurafenib + Decitabine; first compound 0.1 µM) of the same cell line?
Answer: The relative viability was 0.595.

Question: What about the relative viability (Vemurafenib + Decitabine; first compound 1 µM) of the same cell line?
Answer: Its relative viability is 0.545.

Question: And the relative viability (Vemurafenib + Trametinib; first compound 0.03162 µM)?
Answer: Its relative viability is 0.657.

Question: What about the relative viability (Vemurafenib + Trametinib; first compound 0.1 µM) of the same cell line?
Answer: Its relative viability is 0.756.

Question: What about the relative viability (Vemurafenib + Trametinib; first compound 0.3162 µM) of the same cell line?
Answer: The relative viability was 0.475.

Question: What about the relative viability (Vemurafenib + Trametinib; first compound 1 µM) of the same cell line?
Answer: Its relative viability is 0.355.

Question: And the relative viability (Alpelisib + Tozasertib; first compound 0.04 µM)?
Answer: The relative viability was 0.188.

Question: And the relative viability (Alpelisib + Tozasertib; first compound 0.1265 µM)?
Answer: Its relative viability is 0.198.

Question: And the relative viability (Alpelisib + Tozasertib; first compound 0.4 µM)?
Answer: Its relative viability is 0.213.

Question: And the relative viability (Alpelisib + Tozasertib; first compound 1.265 µM)?
Answer: The relative viability was 0.219.

Question: And the relative viability (Alpelisib + Tozasertib; first compound 4 µM)?
Answer: The relative viability was 0.186.

Question: What about the relative viability (Vemurafenib + Navitoclax; first compound 0.03162 µM) of the same cell line?
Answer: The relative viability was 0.336.

Question: And the relative viability (Vemurafenib + Navitoclax; first compound 0.1 µM)?
Answer: The relative viability was 0.327.

Question: What about the relative viability (Vemurafenib + Navitoclax; first compound 0.3162 µM) of the same cell line?
Answer: The relative viability was 0.374.

Question: What about the relative viability (Vemurafenib + Navitoclax; first compound 1 µM) of the same cell line?
Answer: Its relative viability is 0.319.
